Earlier results on 3 substances are cited in patent US20150366978A1, “Compositions Containing Chondroitin Sulphate, Proteolytic Enzymes and Sulphydryl Compounds for Improving the Bioavailability of Chondroitin Sulphate” (GNOSIS S.P.A., priority 2013, published 2015).

The conditions of data set [1]: oral.

As to bromelain, the oral bioavailability result was “around 40%”.
For chondroitin sulphate [CS], the “total uptake of CS by the intestinal mucosa” value in data set [1] (including oligosaccharides, % of the polysaccharide ingested) was 20-23%.
For the substance “chondroitin sulphate [high-molecular-weight CS]”, in data set [1] (absorbed as intact polysaccharide), the “absorption of high-molecular-weight CS” value is on record as 1-5%.
